Source: ChEMBL document CHEMBL1128795, “N-(Quinuclidin-3-yl)-2-(1-methyl-1H-indol-3-yl)-2-oxo-acetamide: a high affinity 5-HT3 receptor partial agonist” (Bioorg Med Chem Lett, 1995)

Tests used:
Assay type in all cases: functional
Rattus norvegicus [1] = species on record: Rattus norvegicus; experiment: Tested for effective concentration against 5-HT mediated depolarization of isolated rat vagus nerve
[2] = molecular target: T1, Serotonin 3 (5-HT3) receptor (Rattus norvegicus) (UniProt P35563+Q9JJ16); experiment: Tested for % decrease in heart rate relative to pre-dose control against 2-methyl-5-HT induced bradycardia (von Bezold-Jarisch (B-J) reflex) in anesthetized rats; parameters: scale not given: the % may be the effect or the level left
[3] = molecular target: T1, Serotonin 3 (5-HT3) receptor (Rattus norvegicus); experiment: Agonist activity against 2-methyl-5-HT induced bradycardia (von Bezold-Jarisch (B-J) reflex) in anesthetized rats
Rattus norvegicus [4] = species on record: Rattus norvegicus; experiment: Tested for maximum response in depolarization of isolated rat vagus nerve measured at dose 10 uM

## Cc1[nH]c2ccc(O)cc2c1CCN
Rattus norvegicus [1]
  EC50: 6.17 µM
[2]
  Control: 58%
[3]
  ED50: 7.7 µg/kg
Rattus norvegicus [4]
  Max response: 363 uV

## NCCc1c[nH]c2ccc(O)cc12 [SEROTONIN]
Rattus norvegicus [1]
  EC50: 0.977 µM
Rattus norvegicus [4]
  Max response: 340 uV
